Test results from PMC3254090 (ACS chemical neuroscience, 2011).
Like-named read-outs stand apart in the source and are kept apart here.

What was measured:
[1] = system: histamine subtype 3 (H3) receptor; details: cited from earlier work
[2] = system: H520 cells; assay: BrdU proliferation assay, H520; type: cell-based; details: 10 μM, 48 hours
[3] = system: SW620 cells; assay: BrdU proliferation assay, SW620; type: cell-based; details: 10 μM, 48 hours
[4] = system: HCT116 cells; assay: HCT116 colon carcinoma cell viability assay; type: cell-based; details: for effect on HCT116 cell viability: after 48 hours
[5] = system: SW620 cells; assay: cell viability, SW620; type: cell-based
[6] = system: H520 cells; assay: cell viability, H520; type: cell-based
[7] = cited from earlier work
[8] = target: T1, norepinephrine transporter, NET (Homo sapiens, UniProt P23975); assay: functional assay, NET; type: biochemical
T1 sequence (P23975 whole entry): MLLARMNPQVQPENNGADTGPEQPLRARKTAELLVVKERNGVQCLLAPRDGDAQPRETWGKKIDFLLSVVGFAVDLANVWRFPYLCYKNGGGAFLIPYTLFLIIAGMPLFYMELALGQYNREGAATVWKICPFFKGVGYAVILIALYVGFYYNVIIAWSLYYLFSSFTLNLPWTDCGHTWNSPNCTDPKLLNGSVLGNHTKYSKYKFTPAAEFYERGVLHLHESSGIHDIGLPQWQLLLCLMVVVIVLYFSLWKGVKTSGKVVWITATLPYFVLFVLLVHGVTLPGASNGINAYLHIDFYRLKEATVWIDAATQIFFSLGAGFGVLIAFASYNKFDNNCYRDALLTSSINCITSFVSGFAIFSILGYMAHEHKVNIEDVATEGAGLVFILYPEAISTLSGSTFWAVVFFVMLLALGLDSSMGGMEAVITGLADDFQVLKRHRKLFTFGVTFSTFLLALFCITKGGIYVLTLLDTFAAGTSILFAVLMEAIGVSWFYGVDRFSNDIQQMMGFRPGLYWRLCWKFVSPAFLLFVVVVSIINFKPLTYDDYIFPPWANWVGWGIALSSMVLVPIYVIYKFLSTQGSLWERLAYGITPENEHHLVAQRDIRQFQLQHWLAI

[9] = system: 68 GPCRs, ion channels and transporters; assay: external panel of radioligand binding assays
[10] = target: T1, norepinephrine transporter, NET; assay: radioligand binding assay, NET
[11] = target: T2, histamine H3 (Homo sapiens, UniProt Q9Y5N1); assay: radioligand binding assay, H3
T2 sequence (Q9Y5N1 whole entry): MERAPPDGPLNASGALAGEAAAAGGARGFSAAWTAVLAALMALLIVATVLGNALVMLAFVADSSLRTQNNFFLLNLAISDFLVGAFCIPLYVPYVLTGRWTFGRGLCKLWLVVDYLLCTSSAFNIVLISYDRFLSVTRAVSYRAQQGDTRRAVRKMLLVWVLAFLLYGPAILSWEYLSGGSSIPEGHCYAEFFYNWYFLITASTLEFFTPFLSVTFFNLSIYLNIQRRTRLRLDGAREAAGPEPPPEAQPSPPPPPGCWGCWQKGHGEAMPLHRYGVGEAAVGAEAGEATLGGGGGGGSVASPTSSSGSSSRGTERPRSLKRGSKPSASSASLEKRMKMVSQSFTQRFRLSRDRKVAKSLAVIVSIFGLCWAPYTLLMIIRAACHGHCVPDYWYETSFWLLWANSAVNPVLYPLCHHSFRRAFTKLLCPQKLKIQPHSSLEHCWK

[12] = target: T3, Dopamine Transporter, DAT (Homo sapiens, UniProt Q01959); assay: radioligand binding assay, DAT
T3 sequence (Q01959 whole entry): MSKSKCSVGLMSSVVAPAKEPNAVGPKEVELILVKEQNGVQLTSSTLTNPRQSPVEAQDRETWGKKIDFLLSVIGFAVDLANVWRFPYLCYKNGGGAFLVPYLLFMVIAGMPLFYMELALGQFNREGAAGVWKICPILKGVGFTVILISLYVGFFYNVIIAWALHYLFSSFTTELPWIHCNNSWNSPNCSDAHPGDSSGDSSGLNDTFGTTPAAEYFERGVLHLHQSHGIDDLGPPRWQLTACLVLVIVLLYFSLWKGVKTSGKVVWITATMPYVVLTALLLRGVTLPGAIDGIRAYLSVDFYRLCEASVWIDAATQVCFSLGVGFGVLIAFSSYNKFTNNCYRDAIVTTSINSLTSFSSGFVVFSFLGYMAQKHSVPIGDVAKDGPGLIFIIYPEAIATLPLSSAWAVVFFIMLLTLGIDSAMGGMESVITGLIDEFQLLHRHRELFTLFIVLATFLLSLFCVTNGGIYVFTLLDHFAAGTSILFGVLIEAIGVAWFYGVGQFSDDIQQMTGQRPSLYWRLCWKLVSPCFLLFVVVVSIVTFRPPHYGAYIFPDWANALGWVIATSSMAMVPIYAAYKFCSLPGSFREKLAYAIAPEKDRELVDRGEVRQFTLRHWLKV

[13] = target: T3, Dopamine Transporter, DAT; assay: functional assay, DAT; type: biochemical
[14] = cited from earlier work; remark: listed apart in the source
[15] = target: T2, histamine H3; assay: functional assay, H3; type: biochemical
[16] = standard cytotoxicity assay
[17] = target: SERT (Homo sapiens, UniProt P31645); assay: SERT activity in receptor profiling; type: binding
SERT, sequence (P31645 whole entry, species assumed): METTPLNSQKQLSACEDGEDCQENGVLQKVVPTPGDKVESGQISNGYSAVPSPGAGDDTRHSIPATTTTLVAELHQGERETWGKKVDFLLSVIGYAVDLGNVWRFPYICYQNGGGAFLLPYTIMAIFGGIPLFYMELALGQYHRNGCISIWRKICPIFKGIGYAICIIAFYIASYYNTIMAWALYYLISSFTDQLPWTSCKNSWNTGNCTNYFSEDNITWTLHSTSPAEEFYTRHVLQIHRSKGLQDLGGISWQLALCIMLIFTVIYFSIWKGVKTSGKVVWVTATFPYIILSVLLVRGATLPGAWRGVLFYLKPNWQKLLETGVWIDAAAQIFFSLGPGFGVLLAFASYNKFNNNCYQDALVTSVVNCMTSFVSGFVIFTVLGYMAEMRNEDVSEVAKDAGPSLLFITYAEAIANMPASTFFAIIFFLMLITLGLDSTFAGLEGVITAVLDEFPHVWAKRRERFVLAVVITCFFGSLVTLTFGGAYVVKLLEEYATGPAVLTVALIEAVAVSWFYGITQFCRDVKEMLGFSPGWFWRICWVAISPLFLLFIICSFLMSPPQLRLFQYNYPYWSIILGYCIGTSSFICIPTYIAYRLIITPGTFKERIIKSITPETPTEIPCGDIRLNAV

## CN(C)CCCOc1c(Br)cc(CCN(C)C)cc1Br [compound 1, aplysamine]
[1]
  affinity for and inhibition of H3 receptor: displayed both affinity for, and inhibition of

## COc1ccc(C/C(=N\O)C(=O)NCCc2c[nH]cn2)cc1Br [compound 2, verogamine]
[1]
  affinity for and inhibition of H3 receptor: displayed both affinity for, and inhibition of

## CN(C)CCCOc1ccc(CCNC(=O)c2cc(Br)c[nH]2)cc1Br [compound 4, dispyrin]
[1]
  affinity for and inhibition of H3 receptor: displayed both affinity for, and inhibition of

## C[C@H]1[C@H]2CC[C@H]3[C@@H]4CC=C5C[C@@H](N(C)C)CC[C@]5(C)[C@H]4CC[C@]23CN1C [compound 3, conessine]
[1]
  affinity for and inhibition of H3 receptor: displayed both affinity for, and inhibition of

## NCCC[C@H]1NCCc2c1[nH]c1cc(Br)ccc21 [compound 21, (R)-3-(7-bromo-2,3,4,9-tetrahydro-1H-pyrido[3,4-b]indol-1-yl)propan-1-amine]
[2]
  inhibition of proliferation (BrdU): dramatic affects inhibiting proliferation
[3]
  inhibition of proliferation (BrdU): dramatic affects inhibiting proliferation
[4]; Homo sapiens, HCT-116, 48 h
  IC50: 3000 nM
[4]
  effect on HCT116 cell viability: completely killing the cells
[4]; multiple non-transformed and colon cancer cell lines
  cytotoxicity in multiple cell lines: extremely cytotoxic
[5]
  activity on cell viability: significant activity on cell viability
[6]
  activity on cell viability: significant activity on cell viability

## N=C(N)NCCCC1NCCc2c1[nH]c1ccccc21 (stereo not drawn) [compound 5, trypargine]
[7]
  toxicity: highly toxic

## N=C(N)NCCC[C@H]1NCCc2c1[nH]c1cc(Br)ccc21 [compound 7, (+)-7-Bromotrypargine]
[8]
  IC50: 1900 nM
[9]
  pharmacological profile in panel of 68 targets: significant percent inhibition at only three targets
[10]; 10 μM, radioligand binding
  % Inhibition (@10 μM): 82%
[10]; binding
  Ki: 1900 nM
[4]
  effect on HCT116 cell viability: no affect on HCT116 cell viability
[11]; 10 μM, radioligand binding
  % Inhibition (@10 μM): 74%
[11]; binding
  Ki: 1800 nM
[12]; 10 μM, radioligand binding
  % Inhibition (@10 μM): 81%
[12]; binding
  Ki: 3000 nM
[13]
  IC50: 3800 nM
[14]
  antimalarial activity: found to possess antimalarial activity
[15]
  IC50: 3600 nM
[16]
  cytotoxicity: non-toxic up to: > 20 µM
[17]
  SERT activity: devoid of SERT activity
[17]; listed as (+)-7-bromotrypargine
  SERT activity: without inhibiting SERT
